Measurements taken from patent US10676744B2, “Modulation of adipose tissue macrophage phenotype by use of MicroRNA-30” (University of South Carolina, priority 2017, dated 2020).

Experiments:
Assay type in all cases: cell-based, mice
CD11c = test: In vitro LNA transfection assay in BMDM: CD11c surface expression by flow cytometry; details: DAPT (5 uM) added to culture media of transfected BMDM
Experimental: (§1) FIG. 3A schematically illustrates an in vitro experimental timeline during which differentiated bone marrow-derived microphages (BMDM) were incubated in conditioned medium from 3T3-L1 adipocytes (CM-3T3-L1A) prior to transfection with microRNA inhibitor locked nucleic acids (LNA) and subsequent culture. Cells and supernatants were harvested at 48 h.
FIG. 3F presents flow cytometry histograms of CD11c expression in the transfected BMDM. For FIG. 3B-FIG. 3F, values are presented as mean±SEM and are from a single experiment representative of 2-3 independent experiments.
FIG. 3G presents the percentage increase in CD11c+ macrophages during the in vitro experiments.
Freshly isolated SVF cells or cultured BMDM were washed in FACS buffer then incubated on ice with FcR-Blocker for 10 m followed by appropriate fluorochrome-conjugated antibodies or isotype controls (BioLegend, anti-CD11b-AlexaFluor488 clone: M1/70, anti-F4/80-PE clone: BM8, anti-DLL4-APC clone: HMD4-1, anti-CD45-PECy7 clone: 30-F11, anti-CD11c-APC clone: N418) for 50 m. Stained cells were washed 3× in FACS buffer then analyzed on a Beckman Coulter FC500 or BD FACSCelesta flow cytometer. Plots were analyzed with Beckman Coulter CXP Software or FlowJo v10.
Bone marrow derived macrophages (BMDM) were differentiated from bone marrow cells (BMC) by flushing the tibia and femur of 6-8 week old female C57Bl/6J mice with PBS. […]

[1] = test system: Notch1 intracellular domain (N1ICD); test: In vitro LNA transfection assay in BMDM: Western blot of cleaved/activated Notch1; details: LNA-transfected BMDM, compared to Mock and Ctr LNA
Experimental: as §1
FIG. 3C presents Western blot results of cleaved/activated Notch1 (N1ICD) during the in vitro experiments. Fold induction relative to Mock is represented below each lane.
(§2) Bone marrow derived macrophages (BMDM) were differentiated from bone marrow cells (BMC) by flushing the tibia and femur of 6-8 week old female C57Bl/6J mice with PBS. BMCs were filtered through a 70 μm nylon mesh, RBC-lysed, and washed, then cultured in complete DMEM/F12 supplemented with 10% FBS, 1% penicillin/streptomycin, 2 mM L-glutamine, and 1 U/mL M-CSF (BioLegend, 576406) for 7-10 days. 3T3-L1 adipocyte-conditioned media (CM-3T3-L1A) was generated by differentiating 3T3-L1 preadipocytes into adipocytes according to the Zen-Bio 3T3-L1 Adipocyte Care Manual (ZBM0009.03). Preadipocyte medium, differentiation medium, and adipocyte maintenance medium were also used (Zen-Bio, PM-1-L1, DM-2-L1, AM-1-L1). Conditioned medium was collected between days 7 and 14 post-differentiation, 0.22 μm filtered, aliquoted, and stored at −80° C. until use. For transfection assays, mature BMDM were plated in poly-D-lysine-coated 6-well plates at a density of 5×10^5 cells in 2 ml CM-3T3-L1A containing 10% FBS without antibiotics. BMDM were incubated 24 h (37° C., 5% CO2, 95% humidity) before transfection. Transfection complexes were prepared by diluting Lipofectamine3000 and LNA in Opti-MEM to final concentrations of 2% (v/v) and 0.32 μM respectively. Mixtures were incubated 15-20 m at RT to allow complexes to form. Meanwhile, conditioned BMDM were washed 3× in pre-warmed Dulbecco's PBS (DPBS), then media replaced with 2 mL Opti-MEM. 5004 transfection complexes were added drop-wise to each well. […]

[2] = test system: miRs-30a-5p, -30c-5p, and -30e-5p; test: In vitro LNA transfection assay in conditioned BMDM: miR-30 expression; details: BMDM in CM-3T3-L1A, LNA-transfected; relative to Mock and control LNA (Ctr LNA)
Experimental: ATMs were lysed in Qiazol and total RNA was purified using Qiagen miRNeasy Microkit. RNA concentration and purity were measured using a NanoDrop 2000 spectrophotometer. 400 ng total RNA was reverse transcribed to cDNA using Qiagen miScript II RT kit with HiFlex buffer. To validate miRNA expression by qRT-PCR, miScript SYBR Green PCR kit and miScript miRNA Primer Assays were used (Qiagen).
as §2

DLL4 = test: In vitro LNA transfection assay in BMDM: DLL4 in culture supernatants by ELISA; details: LNA-transfected BMDM; compared to Mock and Ctr LNA; harvested at 48 h
Experimental: as §1
FIG. 3B presents the amounts of DLL4 detected in culture supernatants by ELISA during the in vitro experiments.
as §2, with “form.” for “form. Meanwhile, conditioned BMDM were washed 3× in pre-warmed Dulbecco's PBS (DPBS), then media replaced with 2 mL Opti-MEM. 5004 transfection complexes were added drop-wise to each well.”
Culture supernatants were aspirated and centrifuged 5000 RPM, 5 m, 4° C. to rid of debris then aliquoted and stored −80° C. before assaying. […] Assays were performed according to manufacturer protocols and plates were read at 450 nm. Concentrations were calculated using standard curves.

With `C[C@H](NC(=O)Cc1cc(F)cc(F)c1)C(=O)N[C@H](C(=O)OC(C)(C)C)c1ccccc1` [DAPT] as the compound, how does the “induction of CD11c in miR-30 inhibitor-transfected cells” value (CD11c) read?
Its value is “reduced induction”.

“Anti-30a: miRNA inhibitor locked nucleic acid (MirCURY LNA, Exiqon) targeting miR-30a-5p; SEQ ID NO: 2 TTCCAGTCGAGGATGTTTAC (LNA-modified miRCURY inhibitor, LNA positions and linkages not given here)” was tested. Which “activated Notch1 intracellular domain (N1ICD) expression” value [1] did it give?
Its value is “increased”.

And the “expression of miRs-30a-5p, -30c-5p, and -30e-5p” value [2]?
The value was “decreased expression”.

And the “DLL4 expression (culture supernatants, ELISA)” value (DLL4)?
The value was “increased”.

For “Anti-30c: miRNA inhibitor locked nucleic acid (MirCURY LNA, Exiqon) targeting miR-30c-5p; SEQ ID NO: 3 CTGAGAGTGTAGGATGTT (LNA-modified miRCURY inhibitor, LNA positions and linkages not given here)”, which “activated Notch1 intracellular domain (N1ICD) expression” value [1] is on record?
Its value is “increased”.

What about the “expression of miRs-30a-5p, -30c-5p, and -30e-5p” value [2] of the same compound?
The value was “decreased expression”.

What about the “DLL4 expression (culture supernatants, ELISA)” value (DLL4) of the same compound?
The value was “increased”.

What does the source list for “Anti-30e: miRNA inhibitor locked nucleic acid (MirCURY LNA, Exiqon) targeting miR-30e-5p; SEQ ID NO: 4 TCCAGTCAAGGATGTTTAC (LNA-modified miRCURY inhibitor, LNA positions and linkages not given here)”?
activated Notch1 intracellular domain (N1ICD) expression [1]: increased; expression of miRs-30a-5p, -30c-5p, and -30e-5p [2]: decreased expression; DLL4 expression (culture supernatants, ELISA) (DLL4): increased
